Data taken from article PMC12396409, “Screening and hit evaluation of a microbial metabolite library against the pathogenic Plasmodium falciparum and Toxoplasma gondii parasites” (International Journal for Parasitology: Drugs and Drug …, 2025).
Like-named read-outs stand apart in the source and are kept apart here.

Columns and labels:
[1] = tested on: P. falciparum 3D7 parasites; assay: P. falciparum growth inhibition assay, 1-cycle (72 h treatment), SYBR DNA staining (library screen at 2 μg/mL and dose-response); type: cell-based, Plasmodium falciparum; details: for activity at 2 µg/mL: Plasmodium falciparum, 3D7
[2] = tested on: P. falciparum 3D7 parasites; assay: P. falciparum growth inhibition assay, 2-cycle (120 h treatment), delayed-death screen and dose-response; type: cell-based, Plasmodium falciparum; details: for activity at 2 µg/mL: Plasmodium falciparum, 3D7
[3] = tested on: T. gondii RH strain (RH-Tub-eYFP) tachyzoites; assay: microbe, parasite or virus in culture; type: cell-based, Toxoplasma gondii; details: 72 h; for percent parasite growth at 2 µg/mL: Toxoplasma gondii
[4] = P. falciparum 3D7, 72 h, parasite screen at 2 μg/mL, % growth, replicate 1
[5] = P. falciparum 3D7, 72 h, parasite screen at 2 μg/mL, % growth, replicate 2
[6] = P. falciparum 3D7, 120 h, parasite screen at 2 μg/mL, % growth, replicate 1
[7] = P. falciparum 3D7, 120 h, parasite screen at 2 μg/mL, % growth, replicate 2
[8] = T. gondii, parasite screen at 2 μg/mL, % growth, replicate 1
[9] = T. gondii, parasite screen at 2 μg/mL, % growth, replicate 2
[10] = P. falciparum, 72 h, parasite screen 2 μg/mL, % growth, replicate 1
[11] = P. falciparum, 72 h, parasite screen 2 μg/mL, % growth, replicate 2
[12] = P. falciparum, 120 h, parasite screen 2 μg/mL, % growth, replicate 1
[13] = P. falciparum, 120 h, parasite screen 2 μg/mL, % growth, replicate 2
[14] = T. gondii, parasite screen 2 μg/mL, % growth, replicate 1
[15] = T. gondii, parasite screen 2 μg/mL, % growth, replicate 2

NC(=O)c1cccc2nc3ccccc3nc12 [BIA-O1527]
Pf_72h_%Growth_Rep1 [1, 4]: 73.74%
Pf_72h_%Growth_Rep2 [1, 5]: 112.20%
Pf_120h_%Growth_Rep1 [2, 6]: 104.27%
Pf_120h_%Growth_Rep2 [2, 7]: 111.59%
Tg_72h_%Growth_Rep1 [3, 8]: 111.76%
Tg_72h_%Growth_Rep2 [3, 9]: 91.86%

CC(=O)N[C@H]1[C@H](O[C@@H]2c3ccc(c(Cl)c3)Oc3cc4cc(c3O[C@@H]3O[C@H](CO)[C@@H](O)[C@H](O)[C@H]3NC(=O)CCCCCCC(C)C)Oc3ccc(cc3Cl)C[C@H]3NC(=O)[C@H](N)c5ccc(O)c(c5)Oc5cc(O)cc(c5)[C@H](NC3=O)C(=O)N[C@H]4C(=O)N[C@H]3C(=O)N[C@@H]2C(=O)N[C@H](C(=O)O)c2cc(O)cc(O[C@H]4O[C@H](CO)[C@@H](O)[C@H](O)[C@@H]4O)c2-c2cc3ccc2O)O[C@H](CO)[C@@H](O)[C@@H]1O [Teicoplanin A2-2]
Pf_72h_%Growth_Rep1 [1, 10]: 72.71%
Pf_72h_%Growth_Rep2 [1, 11]: 85.08%
Pf_120h_%Growth_Rep1 [2, 12]: 148.39%
Pf_120h_%Growth_Rep2 [2, 13]: 93.23%
Tg_72h_%Growth_Rep1 [3, 14]: 90.69%
Tg_72h_%Growth_Rep2 [3, 15]: 106.25%

Nc1cc2nc3ccccc3oc-2cc1=O [Questiomycin A]
Pf_72h_%Growth_Rep1 [1, 10]: 72.04%
Pf_72h_%Growth_Rep2 [1, 11]: 68.55%
Pf_120h_%Growth_Rep1 [2, 12]: 44.88%
Pf_120h_%Growth_Rep2 [2, 13]: 66.03%
Tg_72h_%Growth_Rep1 [3, 14]: 83.12%
Tg_72h_%Growth_Rep2 [3, 15]: 77.23%

CC(C)C[C@@H]1NC(=O)[C@H](Cc2c[nH]c3ccccc23)NC1=O [Cyclo(L-Leu-L-Trp)]
Pf_72h_%Growth_Rep1 ([1]; P. falciparum, 72 h, screen at 2 μg/mL, replicate 1): 84.12%
Pf_72h_%Growth_Rep2 ([1]; P. falciparum, 72 h, screen at 2 μg/mL, replicate 2): 86.68%
Pf_120h_%Growth_Rep1 ([2]; P. falciparum, 120 h, screen at 2 μg/mL, replicate 1): 80.44%
Pf_120h_%Growth_Rep2 ([2]; P. falciparum, 120 h, screen at 2 μg/mL, replicate 2): 87.76%
Tg_72h_%Growth_Rep1 ([3]; T. gondii, screen at 2 μg/mL, replicate 1): 106.88%
Tg_72h_%Growth_Rep2 ([3]; T. gondii, screen at 2 μg/mL, replicate 2): 106.90%

COc1cc(C)c2c(c1)O[C@]1(C)Cc3cc4c(c(O)c3[C@H]2O1)C(=O)c1c(O)c(Cl)c(O)c(Cl)c1C4(C)C [Bischloroanthrabenzoxocinone]
Pf_72h_%Growth_Rep1 ([1]; library screen at 2 μg/mL, 72 h, % growth, replicate 1): 16.72%
Pf_72h_%Growth_Rep2 ([1]; library screen at 2 μg/mL, 72 h, % growth, replicate 2): 45.58%
Pf_120h_%Growth_Rep1 ([2]; library screen at 2 μg/mL, 120 h, % growth, replicate 1): 23.08%
Pf_120h_%Growth_Rep2 ([2]; library screen at 2 μg/mL, 120 h, % growth, replicate 2): 23.09%
Tg_72h_%Growth_Rep1 ([3]; library screen at 2 μg/mL, % growth, replicate 1): 50.70%
Tg_72h_%Growth_Rep2 ([3]; library screen at 2 μg/mL, % growth, replicate 2): 75.56%

CC[C@H](C)[C@H]1NC(=O)c2c1n(C)c1ccccc1c2=O [Quinolactacin A1]
Pf_72h_%Growth_Rep1 [1, 10]: 15.83%
Pf_72h_%Growth_Rep2 [1, 11]: 6.94%
Pf_120h_%Growth_Rep1 [2, 12]: 17.07%
Pf_120h_%Growth_Rep2 [2, 13]: -10.01%
Tg_72h_%Growth_Rep1 [3, 14]: 131.04%
Tg_72h_%Growth_Rep2 [3, 15]: 75.52%

COC[C@H]1OC(=O)c2coc3c2[C@@]1(C)C1=C(C3=O)[C@@H]2CCC(=O)[C@@]2(C)C[C@H]1OC(C)=O [Wortmannin]
activity at 2 µg/mL ([1]; P. falciparum, 72 h, screen at 2 μg/mL, replicate 1, read-out: Pf_72h_%Growth_Rep1): 88.8%
activity at 2 µg/mL ([1]; P. falciparum, 72 h, screen at 2 μg/mL, replicate 2, read-out: Pf_72h_%Growth_Rep2): 119%
activity at 2 µg/mL ([2]; P. falciparum, 120 h, screen at 2 μg/mL, replicate 1, read-out: Pf_120h_%Growth_Rep1): 109%
activity at 2 µg/mL ([2]; P. falciparum, 120 h, screen at 2 μg/mL, replicate 2, read-out: Pf_120h_%Growth_Rep2): 96.5%
percent parasite growth at 2 µg/mL ([3]; T. gondii, screen at 2 μg/mL, replicate 1, read-out: Tg_72h_%Growth_Rep1): 97.3%
percent parasite growth at 2 µg/mL ([3]; T. gondii, screen at 2 μg/mL, replicate 2, read-out: Tg_72h_%Growth_Rep2): 76.4%

COc1oc(C2C/C(=C/C(C)=C/C(C)=C/C(C)=C/c3ccc([N+](=O)[O-])cc3)CO2)c(C)c(=O)c1C (stereo not drawn) [BIA-N1058]
Pf_72h_%Growth_Rep1 [1, 4]: 9.38%
Pf_72h_%Growth_Rep2 [1, 5]: 10.75%
Pf_120h_%Growth_Rep1 [2, 6]: 17.59%
Pf_120h_%Growth_Rep2 [2, 7]: 18.76%
Tg_72h_%Growth_Rep1 [3, 8]: 44.53%
Tg_72h_%Growth_Rep2 [3, 9]: 72.88%

COC(=O)C1=CO[C@@H](C)[C@@H]2CN3CCc4c([nH]c5cc(OC)c(OC)cc45)[C@H]3C[C@H]12 [Reserpiline]
Pf_72h_%Growth_Rep1 [1, 10]: 29.90%
Pf_72h_%Growth_Rep2 [1, 11]: 27.58%
Pf_120h_%Growth_Rep1 [2, 12]: 31.58%
Pf_120h_%Growth_Rep2 [2, 13]: 13.59%
Tg_72h_%Growth_Rep1 [3, 14]: 145.39%
Tg_72h_%Growth_Rep2 [3, 15]: 95.76%
